Experimental data reported in US12030886B2, “Form of ponatinib” (MACFARLAN SMITH LIMITED, priority 2018, dated 2024).

Experiment: Solid-form stability under stressed conditions (temperature/relative humidity)
Type: physicochemical
Conditions: for at least four weeks
Procedure: Form Z of acetic acid solvated hydrate of ponatinib hydrochloride is stable under stressed conditions of about 40° C./75% RH and about 25° C./97% RH for at least four weeks.

Cc1ccc(C(=O)Nc2ccc(CN3CCN(C)CC3)c(C(F)(F)F)c2)cc1C#Cc1cnc2cccnn12 [3-(imidazo[1,2-b]pyridazin-3-ylethynyl)-4-methyl-N-{4-[(4-methylpiperazin-1-yl)methyl]-3-(trifluoromethyl)phenyl}benzamide]
stability under stressed conditions (about 25° C./97% RH): stable | stability under stressed conditions (about 40° C./75% RH): stable
